The record followed here is article PMC10222323, “Novel Biotinylated Cu(II)-Phenanthroline Complexes: 2D and 3D Cytotoxic Activity and Mechanistic Insight” (Molecules, 2023).

The test system of test [1] is A431 (cervical) cancer cells. The test is described as follows: MTT cytotoxicity test, 72 h, A431. The note with it: mean ± S.D. The test is classed as cell-based, human. The protocol:
(§1) The in vitro anticancer potential of the newly developed complexes and of the ligands has been tested on six different cancer cell lines including PSN-1 (pancreatic), HCT-15 (colorectal with low sensitivity for cisplatin), 2008 (ovarian), A431 (cervical), MDA-MB-231 (breast), and U1285 (lung) cancer cells. For comparison purposes, cisplatin efficacy was assessed under the same experimental conditions.
(§2) Tested compounds were dissolved in DMSO and added to the cell-growth medium to a final solvent concentration of 0.5%, which is well reported to not have cytotoxic effects on cell viability. Cisplatin (Sigma Chemical Co., St. Louis, MO, USA) was dissolved in a physiologic solution (0.9% sodium chloride).
(§3) Human colon (HCT-15), pancreatic (PSN-1), and breast (MDA-MB-231) carcinoma-cell lines were obtained from the American Type Culture Collection (ATCC, Rockville, MD). Human cervical carcinoma (A431) cells were kindly provided by Prof. F. Zunino (Division of Experimental Oncology B, Istituto Nazionale dei Tumori, Milan). Human ovarian carcinoma (2008) cells and their cisplatin-resistant counterpart (C13*) were kindly provided by Prof. G. Marverti (Dipartimento di Scienze Biomediche, Università di Modena University, Italy). Cell lines were cultured in RPMI-1640 or DMEM medium (Euroclone) added with 10% fetal calf serum (Euroclone, Milan, Italy), antibiotics (50 units per mL penicillin, and 50 μg mL^−1 streptomycin), and 2 mM L-glutamine.
(§4) The growth inhibitory effect toward the tumour cell lines was evaluated by the MTT test as previously described.

Test [2] deals with human pancreatic PSN-1 cancer-cell spheroids. The test is described as follows: 3D spheroid cytotoxicity, APH assay, 72 h. The test is classed as cell-based. The settings on record: for IC50: 3D spheroids, 72 h, APH test; for times more effective than cisplatin in 3D spheroids: PSN-1 3D spheroids, relative to cisplatin. The protocol:
The cancer spheroids were treated with tested complexes for 72 h, and the cell viability was estimated by means of a modified acid phosphatase (APH) assay.
Spheroid cultures were performed by seeding 2.5 × 10^3 PSN-1 cancer cells/well in spheroid-suitable tissue culture untreated 96-well plates (Greiner Bio-one, Kremsmünster, Austria) in RPMI-1640 cell culture medium without phenol red (Sigma Chemical Co., St. Louis, MO, USA) containing 10% fetal calf serum and supplemented with 20% methyl cellulose stock solution.
An established APH-modified assay was used to detect the cytotoxicity profile in 3D spheroids, as previously described. IC50 values were calculated using a 4-PL model.

Test [3] has as its system HCT-15 (colorectal with low sensitivity for cisplatin) cancer cells. Nature of the test: MTT cytotoxicity test, 72 h, HCT-15. The note with it: mean ± S.D. It is filed as cell-based, human. The protocol:
as §1, §2, §3, §4
(In general: Formazan colour is commonly taken as a measure of viable cells.)

For test [4], the system named is MDA-MB-231 (breast) cancer cells. The test is described as follows: MTT cytotoxicity test, 72 h, MDA-MB-231. It is filed as cell-based, human. The settings on record: mean ± S.D. The protocol: as §1, §2, §3, §4
Test [5] has as its target T1, protein disulphide isomerase (PDI) (Homo sapiens, UniProt P07237).
T1 construct: purchased Enzo Life Sciences, Lausen, Switzerland
Nature of the test: PDI reductase activity (PROTEOSTAT PDI assay kit). The test is classed as biochemical. The note with it: 25 µM of complex. The protocol: MDA-MDB-231 cells were exposed for 3 h to 4 μM of tested compounds or 200 µM of the reference drug chlorambucil. […] On the other hand, some reports highlighted protein disulphide isomerase (PDI) as an emerging target for copper complexes.
The reductase activity of PDI was assayed by measuring the PDI-catalysed reduction of insulin in the presence of increasing concentrations of the tested compounds by using the PROTEOSTAT PDI assay kit (Enzo Life Sciences, Lausen, Switzerland). Experiments were performed according to the manufacturer’s instructions as previously described. IC50 values were calculated by the 4-PL model.
Figure 4 Mechanistic studies. (A) Comet assay: MDA-MDB-231 cells were treated for 3 h with 4 μM of tested compounds 2 and 4 or 200 µM of the reference drug chlorambucil. […] The PDI inhibitor Bacitracine (0.5 mM) was used as a positive control.

The next test relates to noncancerous CHO cells. Nature of the test: Cytotoxicity against noncancerous CHO cells. The test is classed as cell-based. The note with it: for S.I. (selectivity index): average IC50 toward normal cells divided by the average IC50 for the malignant cells; for IC50: noncancerous cells.
Excerpt: In order to preliminarily assess the possible toxic effect on noncancerous cells, we also evaluated the cytotoxic potential of the newly developed Cu(II) complexes against noncancerous CHO cells (Table 3). For all tested complexes, calculated IC50 values were higher than those obtained (on average) against tumour cells, thus indicating for this class of metal complexes a slightly preferential cytotoxicity against cancer cells, as attested by the calculated selectivity index values (SI = the quotient of the average IC50 toward normal cells divided by the average IC50 for the malignant cells).
as §4

In a further test the test system is DNA. Nature of the test: Ethidium bromide displacement assay. The test is classed as binding. The note with it: EtBr displacement. The protocol: A number of research studies were performed on the elucidation of the mechanism of action of copper complexes in the past three decades. Despite several different molecular targets having been proposed for copper(II) complexes, DNA still represents one of the most substantiated when considering diamine ligands. On this basis, we thought it of interest to evaluate the ability of tested complexes to interact with DNA, both at molecular and cellular levels. An ethidium bromide (EB) displacement assay was used to understand if the complexes interact with the DNA at a molecular level. […] These values are very much in line with what was previously seen by us and also very close to the reported literature values of 2.60 × 10^7 M(bp^−1) and 3.04 × 10^7 M(bp^−1) for the bis complexes of [Cu(phen)2]^2+ and [Cu(DPQ)2]^2+ reported by Molphy et al.. […] It is largely possible that the presence of the 1,10-phenanthroline scaffold on compounds 3 and 4 is contributing to the increased displacement of the EtBr (probably by intercalation) and leading to a more noticeable decrease in the fluorescence.
EtBr displacement assays were performed in 10 mM phosphate buffer solution (pH 7.4) as described by Boger et al. The binding values were calculated using the % relative decrease of fluorescence at 50% and the equation below. (1) EEBEtBr/compound50%FI

The next test deals with MDA-MB-231 cells. The note with it: 24 h, IC50 concentrations. The protocol: Transmission electron microscopy (TEM) studies were also performed to assess the eventual modification of cellular/subcellular morphological features induced by the tested complexes. Figure 5 reports the TEM images of the breast carcinoma cells MDA-MB-231 treated for 24 h with IC50 concentrations of cisplatin or compounds 2 and 4.
About 10^6 MDA-MB-231 cells were seeded in 24-well plates and, following overnight incubation, were treated with the tested compounds for 24 h. Then, cells were processed as previously described. Pictures were captured with a Hitachi H-600 electron microscope (Hitachi, Tokyo, Japan) operating at 75 kV. All photos were analyzed by using Corel Draw 11.
Figure 5 TEM analysis of MDA-MB-231 human breast cancer cells: (a,b) control cells; (c–e) cells treated for 24 h with IC50 concentrations of 2; (f–h) cells treated for 24 h with IC50 concentrations of 4.

T1 sequence (P07237 18-508): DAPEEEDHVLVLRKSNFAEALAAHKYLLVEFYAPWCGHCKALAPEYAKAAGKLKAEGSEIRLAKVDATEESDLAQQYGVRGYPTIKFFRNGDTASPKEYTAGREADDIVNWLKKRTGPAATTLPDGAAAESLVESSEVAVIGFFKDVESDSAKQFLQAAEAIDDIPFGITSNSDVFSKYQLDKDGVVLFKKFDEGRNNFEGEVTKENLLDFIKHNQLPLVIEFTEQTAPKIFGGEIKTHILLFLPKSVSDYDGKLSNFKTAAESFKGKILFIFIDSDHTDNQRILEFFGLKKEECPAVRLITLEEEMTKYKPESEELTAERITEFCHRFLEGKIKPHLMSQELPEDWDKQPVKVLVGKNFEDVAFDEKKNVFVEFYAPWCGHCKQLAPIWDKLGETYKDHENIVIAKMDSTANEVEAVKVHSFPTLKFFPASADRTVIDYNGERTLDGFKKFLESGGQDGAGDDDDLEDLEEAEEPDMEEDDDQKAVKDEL

In general, IC50 refers to the concentration that gives 50% inhibition. For the molecule `O=C(CCCC[C@@H]1SC[C@@H]2NC(=O)N[C@@H]21)NN=C1C(=O)c2ccc[n+]3c2-c2c1ccc[n+]2[Cu-2]31[n+]2cccc3ccc4ccc[n+]1c4c32.O=[N+]([O-])[O-].O=[N+]([O-])[O-]` [Complex 4, [Cu(phen)(phendione-biotin)](NO3)2], the IC50 in test [1] was found to be 300 ± 30 nM; in test [2] it was 6.9 ± 1.3 µM; in test [3] it was 400 ± 20 nM; in test [4] it was 600 ± 100 nM; in the test with noncancerous CHO cells it was 1.8 ± 0.7 µM. Besides, the “times more effective than cisplatin in 3D spheroids” value in test [2] was “eight”. Also, the PDI inhibition in test [5] is 15%. Besides, in the test with noncancerous CHO cells, the “S.I. (selectivity index)” value worked out at 2.3. For the same molecule, the “fluorescence quenching (in words)” value with DNA was “highest quenching values”. Moreover, the relative fluorescence decrease entry with DNA is given as “greater than 50%”. Further, the binding constant in the test with DNA (10 mM phosphate buffer pH 7.4, from 50% fluorescence decrease) is 1.28 × 10^7 M(bp^−1). Also, in the test on MDA-MB-231 cells, the “cell morphology by TEM” value was “substantial enhancement of the mitochondrial dimensions (swelling) and a partial disruption of the cristae structures”.
For `O=C(CCCC[C@@H]1SC[C@@H]2NC(=O)N[C@@H]21)NN=C1C(=O)c2ccc[n+]3c2-c2c1ccc[n+]2[Cu-2]3([Cl])[Cl]` [Complex 2, [Cu(phendione-biotin)Cl2]], the IC50 in test [1] was found to be 1200 ± 500 nM; in test [2] it was 1.3 ± 0.5 µM; in test [3] it was 400 ± 100 nM; in test [4], 1400 ± 100 nM; in the test with noncancerous CHO cells, 5.2 ± 0.3 µM. In addition, the “times more effective than cisplatin in 3D spheroids” value in test [2] was “about forty”. The PDI inhibition in test [5] stood at 45%. Also, in the test on noncancerous CHO cells, the “S.I. (selectivity index)” value was 3.7. Besides, the “fluorescence quenching (in words)” value in the test with DNA is “very small quenching”. Also, the “cell morphology by TEM” value in the test on MDA-MB-231 cells is “substantial enhancement of the mitochondrial dimensions (swelling) and a partial disruption of the cristae structures”.
